This passage reports Activity results from ChEMBL document CHEMBL5360559, “Machine learning- and structure-based discovery of a novel chemotype as FXR agonists for potential treatment of nonalcoholic fatty liver disease” (Eur J Med Chem, 2023).

The subject of data set [1] is HepG2. As to the kind of experiment: Induction of dyslipidemia in human HepG2 cells assessed as downregulation of ApoC3 gene expression at 10 uM by qPCR analysis. The class given is toxicity, cell-based. The note with it: hepg2, 10 µM.
The subject of data set [2] is HepG2. As to the kind of experiment: Induction of dyslipidemia in human HepG2 cells assessed as downregulation of ApoA1 gene expression at 10 uM by qPCR analysis. The data set is classed as toxicity, cell-based. The note with it: hepg2, 10 µM.

Turning to `CC[C@H]1[C@@H](O)[C@@H]2[C@H](CC[C@]3(C)[C@@H]([C@H](C)CCC(=O)O)CC[C@@H]23)[C@@]2(C)CC[C@@H](O)C[C@@H]12` [OBETICHOLIC ACID], the Activity entry in data set [1] and in data set [2] was “Toxic” throughout.
